According to PubChem BioAssay AID1645865 (Buhrlage Lab, Dana-Farber Cancer Institute and Novartis …, 2021):
pIC50: −log10 of the molar value. Activity calls are given as the source filed them.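 Rule for the calls: active = maximal inhibition of the USP30 enzyme reaching 30% or more across the dose series; inactive = the rest.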

What follows are compounds tested against Ubiquitin carboxyl-terminal hydrolase 30 (Homo sapiens) (UniProt Q70CQ3) (assay: ubiquitin-specific protease 30 DUB inhibitors, concentration-effect, biochemical, validation of primary actives (AID 1645865)). Conditions: purified USP30, Ub-rhodamine cleavage, fluorescence, 2 h.
Chain of Ubiquitin carboxyl-terminal hydrolase 30 (Homo sapiens) (Q70CQ3 whole entry, looked up): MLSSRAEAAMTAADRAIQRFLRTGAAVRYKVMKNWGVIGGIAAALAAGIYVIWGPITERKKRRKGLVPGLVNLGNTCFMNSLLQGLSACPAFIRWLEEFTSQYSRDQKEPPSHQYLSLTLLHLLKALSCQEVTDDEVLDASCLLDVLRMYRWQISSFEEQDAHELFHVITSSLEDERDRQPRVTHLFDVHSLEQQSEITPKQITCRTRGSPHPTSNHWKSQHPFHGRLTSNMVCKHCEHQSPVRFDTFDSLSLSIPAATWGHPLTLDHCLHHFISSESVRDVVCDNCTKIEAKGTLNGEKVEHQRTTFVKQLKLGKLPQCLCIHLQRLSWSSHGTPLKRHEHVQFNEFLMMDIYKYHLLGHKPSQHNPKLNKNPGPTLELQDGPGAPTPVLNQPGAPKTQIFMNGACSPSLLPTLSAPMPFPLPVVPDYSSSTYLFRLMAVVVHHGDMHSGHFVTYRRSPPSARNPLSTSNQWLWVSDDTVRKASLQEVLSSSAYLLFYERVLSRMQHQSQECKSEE
`O=C(NC1CC1)c1ccnn1-c1ccc2ccc(-c3ccncc3)cn12` was tested, and the IC50 was > 50 µM (inactive).
`O=C(NCc1ccc2c(c1)OCO2)c1nc(-c2ccccc2)n(-c2ccccc2)n1` was tested, and the IC50 was > 50 µM (inactive).
In the case of `CC1(C(=O)NC2CCCC2)Cn2c(cc3ccccc32)C(=O)N1c1ccc(F)cc1` (stereo not drawn), the IC50 was > 50 µM (inactive).
With `CCCCNc1nc2c(-c3ccccc3)nnn2c2ccccc12` the pIC50 was 5.76.
`Cc1sc(NC(=O)CNc2ccccc2)nc1-c1ccc2c(c1)CCN2C(=O)C(C)C` was tested, and the IC50 was > 50 µM (inactive).
With `COc1ccccc1NC(=O)CSC1=NC2(CCCCC2)Nc2ccccc21` the IC50 was > 50 µM (inactive).
For `COc1c(C)c(C(O)C(C)O)c2[nH]c3ccc(CC=C(C)C)cc3c2c1O` (stereo not drawn), the pIC50 was 4.56.
For `COc1ccc(-c2nc(CNC(=O)COc3ccc(C)cc3)cs2)cc1`, the pIC50 was 4.44.
In the case of `O=C(COC(=O)c1cc2c(s1)CCC2)c1ccc2[nH]c(=O)[nH]c2c1`, the IC50 was > 50 µM (inactive).
For `CC(C(=O)Nc1ccccc1)n1cnc2nc(N3CCCCC3)ncc2c1=O` (stereo not drawn), the IC50 was > 50 µM (inactive).
In the case of `Nc1ccccc1SCc1noc(-c2cccs2)n1`, the IC50 was > 50 µM (inactive).
With `COC1=C(C2=C(OC)C(=O)c3cc4c(c(O)c3C2=O)C(=O)OC(C)C4)C(=O)c2c(cc3c(c2O)C(=O)OC(C)C3)C1=O` (stereo not drawn) the IC50 was > 50 µM (inactive).
Compound `c1csc(-c2nc(Nc3ccc4c(c3)CCC4)c3ccccc3n2)c1` has a pIC50 of 5.31.
`C[C@@H](C(=O)NCc1ccc(F)cc1)N1C(=O)N2CCc3c([nH]c4ccccc34)[C@@]2(C)C1=O` gave a pIC50 of 5.39.
In the case of `c1ccc2c(c1)CCc1c-2nc2ccccc2c1N1CCOCC1`, the IC50 was > 50 µM (inactive).
In the case of `CC(=O)N1CCc2cc(S(=O)(=O)NCc3ccc(C)cc3)ccc21`, the IC50 was > 50 µM (inactive).
Work on `Cc1ccc(-n2cc(C(=O)NCc3cccnc3)nn2)cc1C` yielded a pIC50 of 4.67.
Work on `O=C(CCCn1c(=O)c2ccccc2n(CC(=O)NCc2ccccc2Cl)c1=O)NCc1ccc2c(c1)OCO2` yielded a pIC50 of 5.77.
For `Cc1cccc(O)c1-c1nc2c(-c3nc4c(C(=O)O)cccc4o3)cccc2o1`, the IC50 was > 50 µM (inactive).
In the case of `COc1cc(C2SCC(=O)Nc3c2c(-c2ccccc2)nn3-c2ccccc2)cc(OC)c1OC` (stereo not drawn), the IC50 was > 50 µM (inactive).
With `CCOc1ccc(-c2cc3nc(C4CCN(C(=O)OC(C)(C)C)CC4)c(C(=O)Nc4cc(F)ccc4F)cn3n2)cc1` the IC50 was > 50 µM (inactive).
`COC(=O)COc1ccc(/C=N/NC(=O)c2ccc(CN3CCc4ccccc4C3)cc2)cc1` showed a pIC50 of 4.57.
In the case of `CCc1ccc(C(C)NC(=O)C2CCN(c3ccc4nncn4n3)CC2)cc1` (stereo not drawn), the IC50 was > 50 µM (inactive).
In the case of `CN1c2ccccc2CN(CC(N)=O)CC1Cc1ccccc1` (stereo not drawn), the IC50 was > 50 µM (inactive).
`CCOc1ccc(NS(=O)(=O)c2ccc(NC(=O)Nc3ccccc3)cc2)cc1` gave a pIC50 of 4.76.
Work on `COc1ccccc1NC(=O)Nc1ccc(NC(=O)c2ccccc2O)cc1` yielded a pIC50 of 4.54.
For `COc1ccc(C(=O)N2CCCC3(C2)Nc2cccnc2NC3=NC2CCCC2)cn1` (stereo not drawn), the IC50 was > 50 µM (inactive).
For `Cc1ccc(C(=O)N2CCCC3(C2)Nc2cccnc2NC3=NC2CCCC2)s1` (stereo not drawn), the IC50 was > 50 µM (inactive).
In the case of `CC1=CC(=O)C(C2=C(O)C(=O)C(C)=CC2=O)=C(O)C1=O`, the pIC50 was 4.44.
In the case of `O=C(CSc1nncc2ccccc12)Nc1ccc2c(c1)OCO2`, the IC50 was > 50 µM (inactive).
Compound `O=C1COc2ccc(NC(=O)c3cnn(Cc4ccccc4)c3)cc2N1` has a pIC50 of 4.38.
For `C[C@@]12c3ccc4c(c3C(=O)c3occ(c31)C(O)C[C@H]2O)CCC4=O` (stereo partly drawn), the IC50 was > 50 µM (inactive).
`N#Cc1cccnc1N1CCN(C(=O)Nc2cccc3ccccc23)CC1` was tested, and the IC50 was > 50 µM (inactive).
With `COc1ccc(CC(NC(C)=O)C(=O)NC2CCN(c3c(Cc4ccccc4)c(C)nc4ncnn34)CC2)cc1OC` (stereo not drawn) the IC50 was > 50 µM (inactive).
With `CN1CCN(C(=O)c2cc(-c3ccn(CC4CC4)n3)n3ccccc23)CC1` the IC50 was > 50 µM (inactive).
Work on `Cn1c(=O)[nH]c(=O)c2c1nc1n(CCc3ccccc3)c(-c3ccccc3)cn21` yielded a pIC50 of 4.43.
`COc1c2n(c3ccccc13)[C@@]1(O)C(=O)N(C)C(=O)[C@@]1(O)c1c-2n(C)c2ccc(Cl)cc12` was tested, and the IC50 was > 50 µM (inactive).
With `Nc1c(C(=O)c2cccs2)oc2nc(-c3ccccc3)cc(-c3ccco3)c12` the IC50 was > 50 µM (inactive).
For `Cc1nc(C(=O)N[C@@H](C)C(=O)NCc2ccc3c(c2)OCO3)cc2c1[nH]c1ccccc12`, the IC50 was > 50 µM (inactive).
In the case of `CCC(C)c1ccc(O[C@@H]2O[C@@H]3COC(c4ccccc4)O[C@H]3[C@H](O)[C@H]2NC(C)=O)cc1` (stereo partly drawn), the pIC50 was 4.73.
Compound `CCCN1C=NS(=O)(=O)c2cc(C(=O)Nc3ccc(OC)c(Cl)c3)ccc21` has a pIC50 of 4.90.
Compound `O=C(COC(=O)c1cc(Cl)ccc1O)Nc1ccc2c(c1)OCCO2` has a pIC50 of 4.79.
`CC(=O)c1cccc(NC(=O)c2ccc(N3CCCCC3)nn2)c1` showed a pIC50 of 4.45.
With `O=C(NCc1ccc(Br)cc1)c1ccc(-c2cccnc2)nc1` the pIC50 was 4.52.
For `O=C(NC1CCCCC1)c1cc2c(cn1)[nH]c1ccccc12`, the IC50 was > 50 µM (inactive).
For `O=C(CSc1nnc(Cn2cnc3ccccc32)o1)Nc1ccc([N+](=O)[O-])cc1`, the pIC50 was 4.71.
Work on `Cc1ccc2[nH]c(=O)c(-c3nc4ccc(C)cn4c3NCc3ccc(F)cc3)cc2c1` yielded a pIC50 of 5.68.
In the case of `N#Cc1ccccc1COC(=O)c1ccc2ccccc2n1`, the IC50 was > 50 µM (inactive).
